US20100248229A1, “INVITRO HUMAN EMBRYONIC MODEL AND A METHOD THEREOF” (Stempeutics Research Private Limited, priority 2007, published 2010)
Entries after “also recorded” stand apart in the source; their conditions may differ.

Assays:
EBs = assay: Differentiation of EBs into tissues of mesoderm origin / osteoblast differentiation (von Kossa, Alizarin Red); format: cell-based, human; conditions: for osteoblast differentiation (mineralization by Alizarin Red and von Kossa staining): 15 days of differentiation
From the text: The EBs were used to direct their differentiation into tissues of the ectoderm (nerve, skin), endoderm (pancreas, lungs), mesoderm (bone, blood, cardiomyocytes) and trophectoderm lineages (placenta) using known and published methods (Bader et al., 2000; Buttery et al., 2001; Lumelsky et al., 2001; Lee et al; 2000; Schuliner et al., 2001). A description of the methods used for differentiation of hESC to various tissues of the ectoderm, endoderm, mesoderm and trophectoderm lineages can be found in Hyslop et al. (2005). The ability of the compound/drug to inhibit the differentiation of EBs into these tissues of any particular type will indicate the possibility of developmental defect induced by the drug.
Endotoxins/LPS silenced the expression of mesoderm specific genes in the EBs. […] To confirm this effect the LPS exposed EBs were directed towards tissues of mesoderm origin like cardiomyocytes, blood or bone. […] This indicates the possibility of defects in the blood, bone or heart formation as a result of endotoxin exposure during fetal development.
EBs derived from the human embryonic stem cell (hESC) line HUES9 were exposed to 12.5 pg/ml of LPS for 48 hrs. The expression profile of the ectoderm, endoderm, mesoderm and trophectoderm lineage markers like βIII-tubulin, GATA4, BMP2, Brachury and β-hCG were studied, by RT-PCR and Immunofluorescence. Inhibition of mesoderm induction was confirmed by RT-PCR analysis for hANP, cTnT, ABCG2, GATA2, BMP4 and HAND1. Osteoblast differentiation was induced in the EBs, and confirmed by von Kosa and Alizarin red staining. A comet assay was also done to assess the degree of apoptosis in these EBs.
Osteoblast differentiation: To assess the differentiating potential of EBs towards tissues of mesoderm origin, embryoid bodies were produced and exposed to LPS as described above. The normal and LPS treated EBs, 30 each, were subjected to osteoblast differentiation from day 5.5 onwards. To stimulate differentiation into osteogenic cells, ES medium containing 10^−8 M Dexamethasone, 50 μg/ml L-ascorbic acid and 5 mM Sodium-beta-glycophosphate was used. The medium was changed every 2-3 days and the differentiation was continued upto 15 days. The osteoblast differentiation was characterized by identifying mineralized areas using von Kossa and Alizarin Red staining. These were visualized and acquired using a Nikon Eclipse 90i microscope (Nikon Corporation, Japan).

[1] = tested on: EBs derived from hESC line HUES9; assay: Cell counting: DAPI stained nuclei per EB; format: cell-based, human; conditions: 12.5 pg/ml for 48 hrs
Experimental: Immunofluorescence and Cell counting: HESCs were grown on coverslips coated with MEFs and then fixed with 4% paraformaldehyde and 5% sucrose (Sigma) followed by permeabilization in 0.2% Triton X100 (Sigma). The slides were then incubated with primary antibodies 1:500 dilution of SSEA4 (Chemicon, Calif., USA), 5 ug/ml Nanog (Santa Cruz Biotechnology, CA, USA), 10 μg/ml Brachury (R&D Systems Inc. Minneapolis, USA), and 1.5 μg/ml HMGB1 (Sigma) overnight at 4° C. After washing thrice with PBS, fluorescein isothiocyanate/Texas red-labeled Secondary antibodies against the primary goat/rabbit/mouse were added as 1:500 dilutions and incubated for 2 hours. DAPI (Sigma) was used for nuclear staining and then washed with PBS. The negative controls were done without primary antibodies. Slides were mounted with DABCC (Sigma) and images were acquired using Nikon Eclipse 90i microscope (Nikon Corporation, Japan) and Image-Pro Express software (Media Cybernetics, Inc, Silver Spring, Md.). The results were then compared with the control cells (non-LPS treated EBs). To count the number of cells per EB, the number of DAPI stained nuclei were counted in 10 each of the control and LPS treated EBs.
Cell numbers and DNA fragmentation: For a count of the average number of cells per EB, the DAPI stained nuclei were counted in individual control and LPS treated EBs under epifluorescence. […]

[2] = EBs pre-exposed to 12.5 pg/ml for 48 hrs

## lipopolysaccharide [LPS]
EBs; [2]
  efficiency for attachment and proliferation during induction of osteogenic differentiation, treated vs control EBs: no differences were found
  osteoblast differentiation (mineralization by Alizarin Red and von Kossa staining): failed to differentiate into functional osteoblasts; also recorded: failed to undergo osteoblast differentiation
EBs; EBs pre-exposed to 12.5 pg/ml for 48 hrs, listed as lipopolysaccharides
  osteoblast differentiation (mineralization by Alizarin Red and von Kossa staining): absence of mineralization
EBs; LPS exposed EBs
  differentiation of exposed EBs into tissues of mesoderm origin (cardiomyocytes, blood or bone): failure to differentiate
[1]
  average number of cells per EB, treated vs control: not significantly different
[1]; control 142.33±48.41
  average number of cells/EB (mean±SD): 175±75.47 cells/EB
